Reference: ChEMBL document CHEMBL3137667, “[Drug-induced liver injury; fourteenth updated edition of the bibliographic database of liver injuries and related drugs]” (Gastroenterol Clin Biol, 2004)

How the values were obtained:
[1] = Highest frequency of moderate liver toxicity observed during clinical trials, expressed as a percentage. [column '% BIOL' in source]; conditions: human
[2] = Presence of at least one case with successful reintroduction. [column 'REINT' in source]; conditions: human
[3] = Comments (NB not yet translated). [column 'COMMENTAIRES' in source]; conditions: human
[4] = Times to onset, minimal and maximal, observed in the indexed observations. [column 'DELAI' in source]; conditions: human
[5] = Proposed mechanism(s) of liver damage. [column 'MEC' in source]; conditions: human
[6] = human, serum
[7] = human
[8] = human; remark: listed apart in the source
[9] = human; remark: listed apart in the source
[10] = human, serum, 4383 h
[11] = human; remark: listed apart in the source
[12] = human; remark: listed apart in the source
[13] = human; remark: listed apart in the source
[14] = human; remark: listed apart in the source
[15] = human; remark: listed apart in the source
[16] = human; remark: listed apart in the source
[17] = Highest frequency of acute liver toxicity observed during clinical trials, expressed as a percentage. [column '% AIGUE' in source]; conditions: human
[18] = human, serum; remark: listed apart in the source
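Throughout, for Hepatotoxicity (association with vascular disease): count of indexed literature references reporting vascular liver injury in humans, e.g. peliosis hepatitis, hepatic veno-occlusive disease or Budd-Chiari syndrome.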
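Throughout, for Hepatotoxicity (benign tumour): value is a count of indexed literature references citing a benign tumour confirmed by histopathology.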
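Throughout, for Hepatotoxicity (choleostasis): human cholestatic liver injury, shown by histopathology or by peak ALT or AST elevation over alkaline phosphatase ratio below 2, value counts indexed literature reports.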
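Throughout, for Hepatotoxicity (chronic liver disease): chronic liver injury confirmed by histopathology or persistently raised serum aminotransferase activity beyond 6 months, value given as the count of indexed literature references.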
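Throughout, for Hepatotoxicity (cirrhosis): value is a count of indexed literature references reporting cirrhosis confirmed by histopathology.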
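Throughout, for Hepatotoxicity (cytolytic): human cytolytic liver injury, shown by histopathology or by a ratio above 5 of peak ALT or AST elevation to alkaline phosphatase elevation, value counts indexed references.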
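Throughout, for Hepatotoxicity (granulomatous hepatitis): value is a count of indexed literature references reporting granulomatous liver disease confirmed by histopathology.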
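Throughout, for Hepatotoxicity (malignant tumour): malignant tumour confirmed by histopathology, value gives the count of indexed literature references reporting it.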
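Throughout, for Hepatotoxicity (severe hepatitis): human clinical data: severe hepatitis, meaning potentially life-threatening liver failure or clinically observed cases, the value counts how many indexed literature references report it.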
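Throughout, for Hepatotoxicity (steatosis): steatosis confirmed by histopathology, value is the count of indexed references.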

Row | Compound | Hepatotoxicity (successful reintroduction) [2] | Hepatotoxicity (comment) [3] | Hepatotoxicity (time to onset) [4] | Hepatotoxicity (moderate) [6] | Hepatotoxicity (chronic liver disease) [10] | Hepatotoxicity (cirrhosis) [11] | Hepatotoxicity (association with vascular disease) [13] | Hepatotoxicity (steatosis) [14] | Hepatotoxicity (malignant tumour) [15] | Hepatotoxicity (benign tumour) [16] | Hepatotoxicity (moderate) [1] | Hepatotoxicity (acute) [17] | Hepatotoxicity (acute) [18] | Hepatotoxicity (cytolytic) [7] | Hepatotoxicity (choleostasis) [8] | Hepatotoxicity (severe hepatitis) [9] | Hepatotoxicity (granulomatous hepatitis) [12] | other results
1 | COc1cc(Cc2cnc(N)nc2N)cc(OC)c1OC.Cc1cc(NS(=O)(=O)c2ccc(N)cc2)no1 [CO-TRIMOXAZOLE] | yes | RC/CEFADROXIL/SULFASALAZINE #CBP AC_ANTI-ML | 2 hours - 2 months | 46 | 3 | 0 | 0 | 1 | 0 | 0 |  |  |  |  |  |  |  | Hepatotoxicity (moderate) ([1]; Liver): 53.8%; Hepatotoxicity (mechanism) ([5]; Liver): Allergic, Dose-dependant, Toxic Metabolite; Hepatotoxicity (cytolytic) ([7]; Liver): 17; Hepatotoxicity (choleostasis) ([8]; Liver): 35; Hepatotoxicity (severe hepatitis) ([9]; Liver): 11; Hepatotoxicity (granulomatous hepatitis) ([12]; Liver): 1
2 | O=C1OCCN1/N=C/c1ccc([N+](=O)[O-])o1 [FURAZOLIDONE] | yes | RC/NITROFURANTOINE |  | 1 | 0 | 0 |  | 0 | 0 | 0 | 0% | 0% | 3 | 1 | 3 | 0 | 0 | Hepatotoxicity (mechanism) [5]: Allergic
3 | Clc1ccc(C(c2ccccc2Cl)C(Cl)Cl)cc1 (stereo not drawn) [MITOTANE] | yes | INDUCTION_ENZYMATIQUE |  | 5 | 0 | 0 | 0 | 0 | 0 | 0 | 0% | 0% | 0 | 0 | 0 | 0 | 0 | Hepatotoxicity (mechanism) [5]: Dose-dependant
4 | CCCc1cc(=O)[nH]c(=S)[nH]1 [PROPYLTHIOURACIL] | yes | AC_ANTI-N/-M CHOLESTASE_PROLONGEE | 1 day - 1.3 years | 5 | 4 | 1 | 0 | 0 | 0 | 0 |  |  |  |  |  |  |  | Hepatotoxicity (moderate) ([1]; Liver): 27.8%; Hepatotoxicity (mechanism) ([5]; Liver): Allergic, Reactive metabolite; Hepatotoxicity (cytolytic) ([7]; Liver): 31; Hepatotoxicity (choleostasis) ([8]; Liver): 15; Hepatotoxicity (severe hepatitis) ([9]; Liver): 19; Hepatotoxicity (granulomatous hepatitis) ([12]; Liver): 0
5 | CCN(CC)CCCC(C)Nc1c2ccc(Cl)cc2nc2ccc(OC)cc12 (stereo not drawn) [QUINACRINE] | yes | CHOLANGITE | 1 week - 4 months | 2 | 0 | 0 | 0 | 0 | 0 | 0 | 0% | 0.1% | 4 | 2 | 1 | 1 | 0 | 
6 | CN[C@H]1CC[C@@H](c2ccc(Cl)c(Cl)c2)c2ccccc21 [SERTRALINE] | yes | CHOLANGIOLITE | 3 days - 5 months | 4 | 0 | 0 | 0 | 0 | 0 | 0 |  |  | 8 |  |  |  |  | Hepatotoxicity (moderate) ([1]; Liver): 0.8%; Hepatotoxicity (acute) ([17]; Liver): 0%; Hepatotoxicity (cytolytic) ([7]; Liver): 5; Hepatotoxicity (choleostasis) ([8]; Liver): 4; Hepatotoxicity (severe hepatitis) ([9]; Liver): 1; Hepatotoxicity (granulomatous hepatitis) ([12]; Liver): 0
7 | CC(C(=O)O)c1ccc(C(=O)c2ccccc2)s1 (stereo not drawn) [TIAPROFENIC ACID] | yes | RC/DICLOFENAC | 3 weeks - 2 months | 1 | 0 | 0 | 0 | 0 | 0 | 0 | 3.8% | 0% | 3 | 2 | 2 | 0 | 0 | 
8 | CC1(C)S[C@@H]2[C@H](NC(=O)[C@H](C(=O)O)c3ccsc3)C(=O)N2[C@H]1C(=O)O [TICARCILLIN] | yes | RC/CARBENICILLINE | 2 days - 1 week | 7 | 0 | 0 | 0 | 0 | 0 | 0 | 5% | 0% | 0 | 0 | 0 | 0 | 0 | 
9 | Cc1ccc(S(=O)(=O)NC(=O)NN2CCCCCC2)cc1 [TOLAZAMIDE] | yes | CHOLESTASE_PROLONGEE RC/CHLORPROPAMIDE | 3 weeks - 18 months | 0 | 0 | 0 | 0 | 0 | 0 | 0 | 0% | 0% | 5 | 5 | 4 | 1 | 0 | 
10 | CC(=O)CC(c1ccccc1)c1c(O)c2ccccc2oc1=O (stereo not drawn) [WARFARIN] | yes | RC/PHENPROCOUMON RUPTURE_HEPATIQUE #S.REYE | 1 week - 2.5 years | 2 | 0 | 0 | 0 | 0 | 0 | 0 | 0% | 0% | 6 | 0 | 5 | 0 | 0 | 
11 | Cc1cn([C@H]2C[C@H](N=[N+]=[N-])[C@@H](CO)O2)c(=O)[nH]c1=O [ZIDOVUDINE] | yes | I/INTERFERON/PARACETAMOL REACTIVATION_HVB | 1 week - 8 years | 26 | 0 | 0 | 0 | 17 | 0 | 0 | 44% | 12.5% | 25 | 22 | 3 | 13 | 0 | 
12 | ALTEPLASE | yes | AGGRAVATION_MVO | 3 days - 4 days | 4 | 0 | 0 | 0 | 0 | 0 | 0 | 21.2% | 0% | 1 | 1 | 0 | 0 | 0 | 
13 | STREPTOKINASE | yes | RUPTURE_HEPATIQUE | 1 day - 1 week | 12 | 0 | 0 | 0 | 0 | 0 | 0 | 75% | 0% | 9 | 5 | 3 | 0 | 0 | 
